Source: paper PMC11799930, “Discovery of potent measles virus fusion inhibitor peptides via structure-guided derivatization” (RSC Medicinal Chemistry, 2025)
Converted amounts (≈) assume the structure as drawn. “Also recorded” adds a separate entry of the source. Like-named read-outs stand apart in the source and are kept apart here. Where a SMILES comes first, the peptide text is derived from it. [ ]: non-standard residue; d: D form. The star is where a group is joined. Cbz = O=C(OCc1ccccc1)*; AEEA = NCCOCCOCC(=O)O

What was measured:
[1] = molecular target: MeV-F (prefusion-stabilized ectodomain trimer); assay: Surface plasmon resonance (SPR) binding to MeV-F; set-up: species or system Measles virus; conditions: peptides (EG-K derivatives) immobilized on sensor chip, MeV-F as analyte, 25 °C
[2] = molecular target: T1, MeV-F wild type (Measles virus, UniProt Q786F3); format: cell-based; conditions: qualitative; for inhibition of syncytia formation: 24 h
T1 construct: wild-type full-length MeV-H (pCA7-ICH) and MeV-F; expressed in transfected cells; host or cells: Vero/hSLAM cells
Description: To obtain new interactions, we designed and synthesized FIP-NH2 derivatives in which Gly residue is replaced with a D-amino acid residue shown in Fig. 3a (FIP-G3x-NH2, x = d, e, h, k, n, q, r, s, t). To avoid proteolytic degradation of the derivatized peptides, D-amino acid residues were adopted. Because FIP consists of hydrophobic structures, polar residues were recruited for replacing the Gly residue to avoid poor aqueous solubility of the resulting derivatives. The inhibitory activities of the synthesized derivatives were evaluated by cell-to-cell fusion assay. In this assay, each FIP derivative was added to the medium of Vero/hSLAM cells transiently expressing MeV-F, MeV-H, and EGFP, and the cells were incubated at 37 °C for 24 h. The cells were observed under a fluorescence microscope, and inhibition of the syncytia formation was qualitatively assessed based on the size and area of emitting fluorescence (Fig. 3b). We also synthesized and evaluated the reverse sequence of FIP, FIP-rev (Z-Gly-Phe-D-Phe-OH), and the enantiomer of FIP, FIP-enan (Z-Phe-D-Phe-Gly-OH), as negative controls.
Fig. 3 Chemical structures and cell-to-cell fusion assay of FIP and its derivatives using Vero/hSLAM cells expressing MeV-F and MeV-H. a) Chemical structures of FIP and its derivatives. b) A schematic illustration of cell-to-cell fusion assay. […] All the experiments were conducted in triplicate. […]
(BZ-X710, keyence) after incubation for 48 h at 37 ℃.
Cell-to-cell fusion assay using wild-type MeV-F plasmid. Vero/hSLAM cells in 96-well plate were transfected with 0.01 µg pCA7-ICH, 0.0375 µg pCA7-ICF and 0.3 µg pCA7 plasmid encoding EGFP (pCA7-EGFP) using VeroFect (0.695 µL, OZ Biosciences) in 10% FBS/DMEM when the confluency of the cells was about 90%. FIP or an FIP derivative in DMSO was added in each sample to 100 or 0.5 µM as the final […]
concentration. […]

[3] = system: MeV-EGFP; conditions: viral entry inhibition assay; for IC50 / IC90: Vero/hSLAM cells, MeV-EGFP; for IC50: triplicate; for IC90: calculated from Hill coefficient and IC50
Method: (§1) To evaluate how modifying the C-terminus of FIP affects the interactions of FIP and MeV-F, we synthesized three FIP derivatives, named FIP-G3A, FIP-G3a, and FIP-NH2 (Fig. 2a). The inhibitory activities of the derivatives were evaluated using a virus-mediated cell-to-cell fusion assay (Fig. 2b). In this assay, Vero cells stably expressing hSLAM (Vero/hSLAM cells)[21] were infected with EGFP-recombinant MeV (MeV-EGFP) for 1 h at 37 °C, then the medium containing MeV-EGFP was replaced with a medium containing each FIP derivative and incubated at 37 °C for 48 h. The inhibitory activity was assessed based on the size and area of the syncytia observed by fluorescence microscopy, albeit qualitatively. […] To more quantitatively compare the inhibitory activity of FIP and FIP-NH2 against MeV infection in cells, a viral entry inhibition assay was conducted using a serially diluted compound, and the IC50 and IC90 values of the compounds were determined. In this assay, Vero/hSLAM cells were infected with inhibitor-treated MeV-EGFP at 37 °C for 1 h. Subsequently, the supernatant was replaced with a medium containing 100 μM of FIP, and the cells were further incubated at 37 °C for 48 h. Finally, the number of virus-infected cells was quantified using fluorescence microscopy. […]
pfu/well and incubated with peptide solution in 10% FBS/DMEM containing 0–1% DMSO for 30 min at room temperature. Vero/hSLAM cells were then infected with the inhibitor-treated MeV-EGFP for 1 h at 37 °C. The supernatant, including the virus, was replaced with 100 µM FIP (Peptide Institute, Inc. cat#4092) solution in 0–1% DMSO in 10% FBS/DMEM, and EGFP-positive cells were counted under fluorescence microscopy (BZ-X710, keyence) after incubation for 48 h at 37 ℃. The entry inhibition rate was calculated as 100 − (the number of sample EGFP positive cells − the number of cell-only control EGFP positive cells) / (the number of viral control EGFP positive cells − the number of cell-only control EGFP positive cells) × 100. This experiment was performed in triplicate. IC50 values were calculated using parameters determined by fitting the plot to a four-parameter logistic regression model (Hill equation) implemented in Python (Matplotlib and SciPy libraries). The equation used was: y = d + (a – d) / (1 + (x / c)b). x, y, a, b, c, and d represent peptide concentration, fraction of infected cells, maximum response, Hill coefficient (degree of cooperativity), IC50, and minimum response, respectively. Curve fitting was performed using the curve_fit function from the SciPy library, and IC90 values were calculated using the derived Hill coefficient and IC50 values. […]
(BZ-X710, keyence) after incubation for 48 h at 37 ℃. […]

[4] = molecular target: T2, E471S mutant of MeV-F (Measles virus, UniProt Q786F3, E471S); assay: Cell-to-cell fusion assay using MeV-F E471S mutant; format: cell-based; conditions: Fig. 4e, qualitative
T2 construct: Full-length E471S MeV-F was amplified through PCR and site-directed mutagenesis; expressed in transfected cells; host or cells: Vero cells per the methods
Description: To identify the plausible new interactions formed between FIP-G3r-NH2 and MeV-F, we conducted docking simulations using Autodock Vina.[22,23] First, we conducted a docking simulation of FIP and MeV-F to assess the reliability of the docking simulations (Fig. 4a). […] We then conducted a docking simulation of FIP-G3r-NH2 and MeV-F (Fig. 4c). We found a docking pose in which the binding conformation of the main chain and the aromatic ring of FIP-G3r-NH2 is similar to that of FIP (Fig. 4d). […] It should be noted that the MeV-F E471S mutant protein was synthetically produced for this experiment, and, to our knowledge, this mutant has not been reported as a natural variant. […]
pfu/well and incubated with peptide solution in 10% FBS/DMEM containing 0–1% DMSO for 30 min at room temperature. […] The supernatant, including the virus, was replaced with 100 µM FIP (Peptide Institute, Inc. cat#4092) solution in 0–1% DMSO in 10% FBS/DMEM, and EGFP-positive cells were counted under fluorescence microscopy (BZ-X710, keyence) after incubation for 48 h at 37 ℃. The entry inhibition rate was calculated as 100 − (the number of sample EGFP positive cells − the number of cell-only control EGFP positive cells) / (the number of viral control EGFP positive cells − the number of cell-only control EGFP positive cells) × 100. […]

[5] = 1 μM inhibitor in serum
[6] = physchem; format: physicochemical
[7] = in vitro; conditions: bovine
[8] = system: MeV-EGFP; assay: Virus-mediated cell-to-cell fusion assay (syncytia in Vero/hSLAM cells infected with MeV-EGFP); format: cell-based, Measles virus; conditions: 48 h, qualitative
Method: as §1
Virus-mediated cell-to-cell fusion assay. Vero/hSLAM cells were cultured in 96 well plates (Thermo scientific cat#167008) overnight at 37 ℃. Vero/hSLAM cells were then infected with MeV-EGFP (200 pfu / well) for 1 h. The supernatant, including the virus, was replaced with 10% FBS/DMEM with or without 1, 10, 100 µM FIP or a FIP derivative. The images of cell-to-cell fusion were captured by fluorescence microscopy (BZ-X710, keyence) after incubation for 48 h at 37 ℃.

[9] = system: MeV; set-up: method as in PMID 7414950; conditions: plaque assay for MeV; cited from earlier work

N=C(N)NCCC[C@@H](NC(=O)[C@H](Cc1ccccc1)NC(=O)[C@@H](Cc1ccccc1)NC(=O)OCc1ccccc1)C(=O)NCCOCCOCC(=O)N[C@@H](CCCCN)C(N)=O [FIP-G3r-NH-EG-K] (Cbz-[dF]F[dR][AEEA]K-NH2)
Kd [1]: 6.6 nM

N=C(N)NCCC[C@@H](NC(=O)[C@H](Cc1ccccc1)NC(=O)[C@@H](Cc1ccccc1)NC(=O)OCc1ccccc1)C(N)=O [FIP-G3r-NH2] (Cbz-[dF]-Phe-[dR]-NH2)
inhibition of syncytia formation ([2]; 0.5 μM): higher inhibitory activity than FIP-NH2; also recorded: completely inhibited the syncytia formation | membrane fusion inhibitory activity ([2]; MeV-F wild type (WT), Fig. 4e): higher membrane fusion inhibitory activity than FIP | Kd [1]: 6.6 nM | IC50 [3]: 210 nM | IC90 [3]: 1800 nM | fold higher inhibitory activity than FIP (IC50) ([3]; relative to FIP): about six-fold | membrane fusion inhibitory activity [4]: dropped to the same level as FIP | proteolytic stability in serum [5]: high proteolytic stability | solubility [6]: 83 ± 4 µM (≈ 49.9 µg/mL) | half-life at 1 μM [7]: > 24 h

Cbz-Gly-Phe-[dF]-OH [FIP-rev]
inhibition of syncytia formation ([2]; 100 μM): lower inhibitory activity than FIP

NC(=O)CNC(=O)[C@H](Cc1ccccc1)NC(=O)[C@@H](Cc1ccccc1)NC(=O)OCc1ccccc1 [FIP-NH2] (Cbz-[dF]-Phe-Gly-NH2)
inhibition of syncytia formation ([8]; 1 μM): a little higher inhibitory activity than FIP | inhibitory activity against MeV-induced cell fusion compared with FIP ([8]; 100, 10 or 1 μM): did not decrease the inhibitory activity | Kd [1]: 81 nM | IC50 [3]: 510 nM | IC90 [3]: 3600 nM

NCCCC[C@H](NC(=O)COCCOCCNC(=O)CNC(=O)[C@H](Cc1ccccc1)NC(=O)[C@@H](Cc1ccccc1)NC(=O)OCc1ccccc1)C(N)=O [FIP-NH-EG-K] (Cbz-[dF]FG[AEEA]K-NH2)
Kd [1]: 81 nM

Cbz-Phe-[dF]-Gly-OH [FIP-enan]
inhibition of syncytia formation ([2]; 100 μM): lower inhibitory activity than FIP

O=C(O)CNC(=O)[C@H](Cc1ccccc1)NC(=O)[C@@H](Cc1ccccc1)NC(=O)OCc1ccccc1 [FIP, Z-D-Phe-Phe-Gly, reference compound] (Cbz-[dF]-Phe-Gly-OH)
IC50 [9]: 200 nM | inhibition of syncytia formation ([2]; 0.5 μM): weakly inhibited syncytia formation | inhibition of syncytia formation ([2]; 100 μM): strongly inhibited syncytia formation | inhibition of syncytia formation ([8]; 1 μM): inhibited fusion only weakly | inhibition of syncytia formation ([8]; 10 μM): strongly inhibited syncytia formation | inhibition of syncytia formation ([8]; 100 μM): strongly inhibited syncytia formation | IC50 [3]: 1300 nM | IC90 [3]: 12000 nM | proteolytic stability in serum [5]: high proteolytic stability | solubility [6]: 98 ± 1 µM (≈ 49.3 µg/mL) | half-life at 1 μM [7]: > 24 h
